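In this assay, cells in 96-well plates receive the compound at five concentrations for 48 hours. Endpoints are linearly interpolated between the surrounding concentrations. GI50 = concentration required for 50% inhibition of growth. Definition used: TGI = concentration required for complete inhibition of growth.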
Tests used:
Assay in all cases: inhibition of tumour cell growth, NCI panel, 48 h
HT29 colon = tested on: HT29 colon
HCC-2998 colon = tested on: HCC-2998 colon
HOP-92 NSCLC = tested on: HOP-92 NSCLC
HOP-62 NSCLC = tested on: HOP-62 NSCLC
NCI-H460 lung = tested on: NCI-H460 lung
CCRF-CEM leukemia = tested on: CCRF-CEM leukemia
786-0 renal = tested on: 786-0 renal
A498 renal = tested on: A498 renal
NCI-H23 lung = tested on: NCI-H23 lung
CAKI-1 renal = tested on: CAKI-1 renal
SN12C renal = tested on: SN12C renal
SW-620 colon = tested on: SW-620 colon
SF-295 CNS = tested on: SF-295 CNS
DU-145 prostate = tested on: DU-145 prostate
COLO 205 colon = tested on: COLO 205 colon
TK-10 renal = tested on: TK-10 renal
NCI/ADR-RES ovarian = tested on: NCI/ADR-RES ovarian
T-47D breast = tested on: T-47D breast
SF-268 CNS = tested on: SF-268 CNS
OVCAR-8 ovarian = tested on: OVCAR-8 ovarian
K-562 leukemia = tested on: K-562 leukemia
MCF7 breast = tested on: MCF7 breast
UACC-257 melanoma = tested on: UACC-257 melanoma
UACC-62 melanoma = tested on: UACC-62 melanoma
U251 CNS = tested on: U251 CNS
SK-OV-3 ovarian = tested on: SK-OV-3 ovarian
BT-549 breast = tested on: BT-549 breast
OVCAR-4 ovarian = tested on: OVCAR-4 ovarian
NCI-H226 lung = tested on: NCI-H226 lung
RPMI-8226 leukemia = tested on: RPMI-8226 leukemia
HL-60(TB) leukemia = tested on: HL-60(TB) leukemia
OVCAR-5 ovarian = tested on: OVCAR-5 ovarian
LOX IMVI melanoma = tested on: LOX IMVI melanoma
PC-3 prostate = tested on: PC-3 prostate
HS 578T breast = tested on: HS 578T breast
SF-539 CNS = tested on: SF-539 CNS
SK-MEL-5 melanoma = tested on: SK-MEL-5 melanoma
KM12 colon = tested on: KM12 colon
ACHN renal = tested on: ACHN renal
MDA-MB-435 = tested on: MDA-MB-435
OVCAR-3 ovarian = tested on: OVCAR-3 ovarian
HCT-15 colon = tested on: HCT-15 colon
MDA-MB-231 breast = tested on: MDA-MB-231 breast
SK-MEL-28 melanoma = tested on: SK-MEL-28 melanoma
A549 NSCLC = tested on: A549 NSCLC
M14 melanoma = tested on: M14 melanoma
SK-MEL-2 melanoma = tested on: SK-MEL-2 melanoma
SNB-75 CNS = tested on: SNB-75 CNS
IGROV1 ovarian = tested on: IGROV1 ovarian
MOLT-4 leukemia = tested on: MOLT-4 leukemia
SNB-19 CNS = tested on: SNB-19 CNS
RXF 393 renal = tested on: RXF 393 renal
NCI-H522 lung = tested on: NCI-H522 lung
UO-31 renal = tested on: UO-31 renal
HCT-116 colon = tested on: HCT-116 colon
MALME-3M melanoma = tested on: MALME-3M melanoma
SR leukemia = tested on: SR leukemia
EKVX NSCLC = tested on: EKVX NSCLC

## COc1ccccc1CN=C1NC(=O)/C(=C/c2ccc3ncccc3c2)S1
HT29 colon
  GI50: 8.45 µM
  TGI: > 25 µM
HCC-2998 colon
  GI50: 17.5 µM
  TGI: > 25 µM
HOP-92 NSCLC
  GI50: 6.24 µM
  TGI: 22 µM
HOP-62 NSCLC
  GI50: 7.64 µM
  TGI: > 20.2 µM
NCI-H460 lung
  GI50: 6.91 µM
  TGI: > 25 µM
CCRF-CEM leukemia
  GI50: 7.01 µM
  TGI: > 25 µM
786-0 renal
  GI50: 10.9 µM
  TGI: > 25 µM
A498 renal
  GI50: 4.49 µM
  TGI: 15.8 µM
NCI-H23 lung
  GI50: 8.65 µM
  TGI: > 25 µM
CAKI-1 renal
  GI50: 6.84 µM
  TGI: > 25 µM
SN12C renal
  GI50: 7.8 µM
  TGI: > 25 µM
SW-620 colon
  GI50: 4.54 µM
  TGI: > 25 µM
SF-295 CNS
  GI50: 5.7 µM
  TGI: > 21 µM
DU-145 prostate
  GI50: 11 µM
  TGI: > 25 µM
COLO 205 colon
  GI50: 5.92 µM
  TGI: > 24.1 µM
TK-10 renal
  GI50: 7.97 µM
  TGI: > 25 µM
NCI/ADR-RES ovarian
  GI50: 11.2 µM
  TGI: > 25 µM
T-47D breast
  GI50: 8.13 µM
  TGI: 24.3 µM
SF-268 CNS
  GI50: 7.89 µM
  TGI: > 25 µM
OVCAR-8 ovarian
  GI50: 8.17 µM
  TGI: > 25 µM
K-562 leukemia
  GI50: 8.4 µM
  TGI: > 25 µM
MCF7 breast
  GI50: 5.4 µM
  TGI: > 25 µM
UACC-257 melanoma
  GI50: > 25 µM
  TGI: > 25 µM
UACC-62 melanoma
  GI50: 8.61 µM
  TGI: > 25 µM
U251 CNS
  GI50: 4.51 µM
  TGI: > 16.1 µM
SK-OV-3 ovarian
  GI50: 6.08 µM
  TGI: > 19.2 µM
BT-549 breast
  GI50: 5.18 µM
  TGI: 14 µM
OVCAR-4 ovarian
  GI50: 8.88 µM
  TGI: > 25 µM
NCI-H226 lung
  GI50: 8.43 µM
  TGI: > 25 µM
RPMI-8226 leukemia
  GI50: 7.17 µM
  TGI: > 25 µM
HL-60(TB) leukemia
  GI50: 10.3 µM
  TGI: > 25 µM
OVCAR-5 ovarian
  GI50: 16.3 µM
  TGI: > 25 µM
LOX IMVI melanoma
  GI50: 7.38 µM
  TGI: > 25 µM
PC-3 prostate
  GI50: 18.5 µM
  TGI: > 25 µM
HS 578T breast
  GI50: 6.61 µM
  TGI: > 24.1 µM
SF-539 CNS
  GI50: 5.28 µM
  TGI: > 20.3 µM
SK-MEL-5 melanoma
  GI50: 12.4 µM
  TGI: > 21.5 µM
KM12 colon
  GI50: 6.18 µM
  TGI: > 16.9 µM
ACHN renal
  GI50: 7.49 µM
  TGI: > 25 µM
MDA-MB-435
  GI50: 6.02 µM
  TGI: > 21.3 µM
OVCAR-3 ovarian
  GI50: 7.13 µM
  TGI: 24.9 µM
HCT-15 colon
  GI50: 4.55 µM
  TGI: > 25 µM
MDA-MB-231 breast
  GI50: 11.2 µM
  TGI: > 25 µM
SK-MEL-28 melanoma
  GI50: > 15.3 µM
  TGI: > 25 µM
A549 NSCLC
  GI50: 6.93 µM
  TGI: > 25 µM
M14 melanoma
  GI50: 14.5 µM
  TGI: > 25 µM
SK-MEL-2 melanoma
  GI50: 10.4 µM
  TGI: > 25 µM
SNB-75 CNS
  GI50: 3.9 µM
  TGI: > 25 µM
IGROV1 ovarian
  GI50: 6.56 µM
  TGI: > 19.4 µM
MOLT-4 leukemia
  GI50: 8.17 µM
  TGI: > 19 µM
SNB-19 CNS
  GI50: 4.01 µM
  TGI: > 25 µM
RXF 393 renal
  GI50: 8.75 µM
  TGI: > 25 µM
NCI-H522 lung
  GI50: 4.96 µM
  TGI: 13 µM
UO-31 renal
  GI50: 7.37 µM
  TGI: > 21.7 µM
HCT-116 colon
  GI50: 3.1 µM
  TGI: > 25 µM
MALME-3M melanoma
  GI50: > 25 µM
  TGI: > 25 µM
SR leukemia
  GI50: 1.87 µM
  TGI: > 17.9 µM

## O=C1/C(=N/N=C(c2ccccc2)c2ccccc2)c2ccccc2-c2ccccc21
HT29 colon
  TGI: > 100 µM
HOP-92 NSCLC
  TGI: 87.8 µM
HOP-62 NSCLC
  TGI: > 100 µM
NCI-H460 lung
  TGI: > 100 µM
786-0 renal
  TGI: > 100 µM
NCI-H23 lung
  TGI: > 100 µM
CAKI-1 renal
  TGI: > 100 µM
SN12C renal
  TGI: > 100 µM
SW-620 colon
  TGI: > 100 µM
SF-295 CNS
  TGI: > 100 µM
DU-145 prostate
  TGI: > 100 µM
COLO 205 colon
  TGI: > 100 µM
TK-10 renal
  TGI: > 100 µM
NCI/ADR-RES ovarian
  TGI: > 100 µM
T-47D breast
  TGI: > 100 µM
SF-268 CNS
  TGI: > 100 µM
OVCAR-8 ovarian
  TGI: > 100 µM
K-562 leukemia
  TGI: > 100 µM
MCF7 breast
  TGI: > 100 µM
UACC-257 melanoma
  TGI: > 100 µM
UACC-62 melanoma
  TGI: > 100 µM
U251 CNS
  TGI: > 100 µM
SK-OV-3 ovarian
  TGI: > 100 µM
BT-549 breast
  TGI: > 100 µM
OVCAR-4 ovarian
  TGI: > 100 µM
NCI-H226 lung
  TGI: > 100 µM
EKVX NSCLC
  TGI: > 100 µM
HL-60(TB) leukemia
  TGI: > 100 µM
OVCAR-5 ovarian
  TGI: > 100 µM
LOX IMVI melanoma
  TGI: > 100 µM
PC-3 prostate
  TGI: > 100 µM
HS 578T breast
  TGI: > 100 µM
SF-539 CNS
  TGI: > 100 µM
SK-MEL-5 melanoma
  TGI: > 100 µM
KM12 colon
  TGI: > 100 µM
ACHN renal
  TGI: > 100 µM
MDA-MB-435
  TGI: > 100 µM
OVCAR-3 ovarian
  TGI: > 100 µM
HCT-15 colon
  TGI: > 100 µM
MDA-MB-231 breast
  TGI: > 100 µM
SK-MEL-28 melanoma
  TGI: > 100 µM
A549 NSCLC
  TGI: > 100 µM
M14 melanoma
  TGI: > 100 µM
SK-MEL-2 melanoma
  TGI: > 100 µM
SNB-75 CNS
  TGI: > 100 µM
IGROV1 ovarian
  TGI: > 100 µM
MOLT-4 leukemia
  TGI: > 100 µM
SNB-19 CNS
  TGI: > 100 µM
RXF 393 renal
  TGI: > 100 µM
NCI-H522 lung
  TGI: > 100 µM
UO-31 renal
  TGI: > 100 µM
HCT-116 colon
  TGI: > 100 µM
MALME-3M melanoma
  TGI: > 100 µM
SR leukemia
  TGI: > 100 µM

## CC(SC(=S)N(C)C)C(=O)Nc1nnc(-c2ccc(Cl)cc2)o1 (centres undefined)
HT29 colon
  TGI: 51.9 µM
HCC-2998 colon
  TGI: > 100 µM
HOP-92 NSCLC
  TGI: > 100 µM
HOP-62 NSCLC
  TGI: > 100 µM
NCI-H460 lung
  TGI: > 100 µM
786-0 renal
  TGI: 69.7 µM
A498 renal
  TGI: > 100 µM
NCI-H23 lung
  TGI: > 100 µM
SN12C renal
  TGI: > 100 µM
SW-620 colon
  TGI: > 100 µM
DU-145 prostate
  TGI: > 100 µM
COLO 205 colon
  TGI: > 100 µM
TK-10 renal
  TGI: > 100 µM
NCI/ADR-RES ovarian
  TGI: > 100 µM
T-47D breast
  TGI: > 100 µM
SF-268 CNS
  TGI: > 100 µM
OVCAR-8 ovarian
  TGI: > 100 µM
K-562 leukemia
  TGI: > 100 µM
MCF7 breast
  TGI: > 100 µM
UACC-257 melanoma
  TGI: > 100 µM
UACC-62 melanoma
  TGI: > 100 µM
U251 CNS
  TGI: > 100 µM
SK-OV-3 ovarian
  TGI: > 100 µM
BT-549 breast
  TGI: > 100 µM
OVCAR-4 ovarian
  TGI: > 100 µM
NCI-H226 lung
  TGI: > 100 µM
RPMI-8226 leukemia
  TGI: 66.6 µM
OVCAR-5 ovarian
  TGI: > 100 µM
LOX IMVI melanoma
  TGI: 33.8 µM
PC-3 prostate
  TGI: > 100 µM
HS 578T breast
  TGI: > 100 µM
SF-539 CNS
  TGI: > 100 µM
SK-MEL-5 melanoma
  TGI: > 100 µM
ACHN renal
  TGI: > 100 µM
MDA-MB-435
  TGI: > 100 µM
OVCAR-3 ovarian
  TGI: > 100 µM
HCT-15 colon
  TGI: > 100 µM
MDA-MB-231 breast
  TGI: > 100 µM
SK-MEL-28 melanoma
  TGI: > 100 µM
A549 NSCLC
  TGI: > 100 µM
M14 melanoma
  TGI: > 100 µM
SK-MEL-2 melanoma
  TGI: > 100 µM
SNB-75 CNS
  TGI: > 100 µM
IGROV1 ovarian
  TGI: > 100 µM
MOLT-4 leukemia
  TGI: 8.28 µM
SNB-19 CNS
  TGI: > 100 µM
RXF 393 renal
  TGI: > 100 µM
UO-31 renal
  TGI: > 100 µM
HCT-116 colon
  TGI: > 100 µM
MALME-3M melanoma
  TGI: > 100 µM
SR leukemia
  TGI: 19.9 µM

— PubChem BioAssay (NCI)
